This is an account of results in patent publication US6294674A, “Dibenzofuran sulfonamide matrix metalloproteinase inhibitors” (priority 1999, dated 2001).

The test system of data set [1] is experimental allergic encephalomyelitis (EAE). The settings on record: Gijbels, et al., J. Clin. Invest., 1994; cited from earlier work.
Data set [2] addresses T1, MMP01 (Homo sapiens, UniProt P03956).
T1 construct: purchased Washington University School of Medicine, St. Louis, Mo
T1 sequence (P03956 100-469): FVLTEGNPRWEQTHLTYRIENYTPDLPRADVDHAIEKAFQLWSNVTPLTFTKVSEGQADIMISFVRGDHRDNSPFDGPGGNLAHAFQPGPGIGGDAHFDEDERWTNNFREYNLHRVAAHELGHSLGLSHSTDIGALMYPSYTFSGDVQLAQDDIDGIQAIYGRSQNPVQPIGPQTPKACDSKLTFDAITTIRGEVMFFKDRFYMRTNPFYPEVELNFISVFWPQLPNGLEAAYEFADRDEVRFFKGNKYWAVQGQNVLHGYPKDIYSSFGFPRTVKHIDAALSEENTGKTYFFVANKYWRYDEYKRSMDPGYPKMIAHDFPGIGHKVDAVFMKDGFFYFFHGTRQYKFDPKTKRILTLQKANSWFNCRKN
The experiment in a line: Thiopeptolide assay, MMP01. It is filed as biochemical. As to conditions: Table 1; read-out: IC50 MMP01.

The target of data set [3] is T2, MMP09 (Homo sapiens, UniProt P14780).
T2 construct: purchased Washington University School of Medicine, St. Louis, Mo
T2 sequence (P14780 107-707 limits assumed): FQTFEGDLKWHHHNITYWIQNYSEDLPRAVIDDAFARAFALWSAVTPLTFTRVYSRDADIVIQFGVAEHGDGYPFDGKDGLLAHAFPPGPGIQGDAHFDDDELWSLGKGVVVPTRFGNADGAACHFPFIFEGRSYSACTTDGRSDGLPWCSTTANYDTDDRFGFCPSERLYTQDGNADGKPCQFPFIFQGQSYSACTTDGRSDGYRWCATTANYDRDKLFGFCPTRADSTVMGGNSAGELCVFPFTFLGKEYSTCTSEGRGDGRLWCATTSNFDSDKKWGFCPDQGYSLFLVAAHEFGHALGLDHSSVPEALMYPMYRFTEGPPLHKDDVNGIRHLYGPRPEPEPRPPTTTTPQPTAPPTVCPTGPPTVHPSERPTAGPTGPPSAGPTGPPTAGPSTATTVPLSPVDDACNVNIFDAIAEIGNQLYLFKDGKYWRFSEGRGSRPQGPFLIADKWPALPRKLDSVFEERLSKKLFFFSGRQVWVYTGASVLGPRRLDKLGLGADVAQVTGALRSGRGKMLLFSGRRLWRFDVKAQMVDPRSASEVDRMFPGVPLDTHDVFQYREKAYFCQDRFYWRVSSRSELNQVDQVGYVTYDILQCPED
The experiment in a line: Thiopeptolide assay, MMP09. It is filed as biochemical. The settings on record: Table 1. The method, then:
IC50 values were determined using a thiopeptolide substrate, Ac-Pro-Leu-Gly-thioester-Leu-Leu-Gly-OEt (Ye Q.-Z., Johnson L. L., Hupe D. J., and Baragi V., "Purification and Characterization of the Human Stromelysin Catalytic Domain Expressed in Escherichia coli," Biochemistry, 1992;31:11231-11235). MMP01, MMP07, MMP09, and MMP13 activity was assayed in a method similar to MMP02 and MMP03 (SCD and GCD). MMP01 and MMP09 can be obtained from Washington University School of Medicine, St. Louis, Mo. MMP07 can be obtained in accordance with the known procedure set forth by Ye QZ, Johnson L. L., and Baragi V., "Gene Syntheses and Expression in E. coli for PUMP, a Human Matrix Metalloproteinase" Biochem. and Biophys. Res. Comm., 1992; 186:143-149. MMP 13 can be obtained in accordance with the known procedure set forth by Freije J. M. P., et al., "Molecular Cloning and Expression of Collegenase-3, a Novel Human Matrix Metalloproteinase Produced by Breast Carcinomas" J. Bio. Chem., 1994;269:16766-6773.
Hydrolysis of the thiopeptolide substrate Ac-Pro-Leu-Gly-thioester-Leu-Leu-Gly-OEt (Bachem) is used as the primary screen to determine IC50 values for MMP inhibitors. […] The change in absorbance at 405 riM is monitored on a ThermoMax microplate reader at room temperature continuously for 20 minutes.

The target in data set [4] is gelatinase A catalytic domain (MMP02). The experiment in a line: Thiopeptolide assay, gelatinase A catalytic domain (GCD, MMP02). It counts as biochemical. The settings on record: Table 1; GCD; read-out: IC50 MMP02.
Data set [5] is described as follows: MMP Inhibitor Bioassay (plasma levels after gavage). It counts as in vivo. As to conditions: rat, po, 50 mg/kg by gavage. On the procedure: Animals are dosed by gavage with either vehicle or compound at 2, 10, or 50 mg/kg. Blood samples are collected from 3-4 animals from each dosing group at 1, 2, 4, 6, and 24 hour postdose, centrifuged, and the plasma immediately frozen at -20° C. Plasma protein is precipitated with an equal volume of acetonitrile and separated by centrifugation at room temperature. The supernate is evaporated to dryness and reconstituted to the original plasma volume with 50 mM Tris, pH 7.6. Ten-fold serial dilutions of the reconstituted plasma samples are prepared in 50 mM Tris, pH 7.6 for dose response assays using the appropriate thiopeptolide assay. The concentration of plasma which yields 50% inhibition of enzyme is determined and used to calculate the inhibitor plasma level from the known IC50 value. […] All control samples are subjected to acetonitrile precipitation and analyzed with the thiopeptolide assay.

The target in data set [6] is T3, MMP07 (Homo sapiens, UniProt P09237).
T3 construct: made in house; host or cells: Escherichia coli
T3 sequence (P09237 95-267): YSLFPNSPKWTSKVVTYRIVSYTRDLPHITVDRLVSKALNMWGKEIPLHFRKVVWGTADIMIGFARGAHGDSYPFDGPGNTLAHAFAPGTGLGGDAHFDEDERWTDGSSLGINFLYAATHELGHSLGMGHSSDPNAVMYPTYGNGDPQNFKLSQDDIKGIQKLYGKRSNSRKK
The experiment in a line: Thiopeptolide assay, MMP07. It is filed as biochemical. As to conditions: Table 1; read-out: IC50 MMP07.

In data set [7] the target is T4, stromelysin-1 catalytic domain (MMP03) (Homo sapiens, UniProt P08254).
T4 construct: SCD (stromelysin-1 catalytic domain); made in house; host or cells: Escherichia coli
T4 sequence (P08254 100-272 limits assumed): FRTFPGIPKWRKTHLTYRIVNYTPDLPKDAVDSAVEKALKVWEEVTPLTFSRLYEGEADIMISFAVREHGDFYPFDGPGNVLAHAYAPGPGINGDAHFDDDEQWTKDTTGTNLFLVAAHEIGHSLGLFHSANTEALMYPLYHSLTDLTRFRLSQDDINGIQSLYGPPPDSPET
The experiment in a line: Thiopeptolide assay, stromelysin-1 catalytic domain (SCD, MMP03). It is filed as biochemical. As to conditions: Table 1; SCD; read-out: IC50 MMP03.

Data set [8] relates to MMP13. The experiment in a line: Thiopeptolide assay, MMP13. It counts as biochemical, human. The settings on record: Table 1. On the procedure: MMP01, MMP07, MMP09, and MMP13 activity was assayed in a method similar to MMP02 and MMP03 (SCD and GCD). MMP01 and MMP09 can be obtained from Washington University School of Medicine, St. Louis, Mo. MMP07 can be obtained in accordance with the known procedure set forth by Ye QZ, Johnson L. L., and Baragi V., "Gene Syntheses and Expression in E. coli for PUMP, a Human Matrix Metalloproteinase" Biochem. and Biophys. […] MMP 13 can be obtained in accordance with the known procedure set forth by Freije J. M. P., et al., "Molecular Cloning and Expression of Collegenase-3, a Novel Human Matrix Metalloproteinase Produced by Breast Carcinomas" J. Bio.
Hydrolysis of the thiopeptolide substrate Ac-Pro-Leu-Gly-thioester-Leu-Leu-Gly-OEt (Bachem) is used as the primary screen to determine IC50 values for MMP inhibitors. A 100 μL reaction contains 1 mM 5,5'-dithiobis(2-nitrobenzoic acid) (DTNB), 100 μM substrate, 0.1% Brij, enzyme, and inhibitor in the appropriate reaction buffer. Activated full-length enzymes are assayed at 5 nM, Stromelysin Catalytic Domain (SCD) at 10 nM, and Gelatinase A Catalytic Domain (GaCD) at 1 nM. Inhibitors are screened from 100 μM to 1 nM. Full-length enzymes are assayed in 50 mM HEPES, 10 mM CaCl2, pH 7.0; SCD in 50 mM MES, 10 mM CaCl2, pH 6.0; and GaCD in 50 mM MOPS, 10 mM CaCl2, 10 μM ZnCl2, pH 7.0.

Data set [9] concerns bovine nasal and pig articular cartilage. As to conditions: Andrews et al. 1992; Ellis et al. 1994; cited from earlier work.

Take `CNC(=O)[C@H](Cc1c[nH]c2ccccc12)NC(=O)[C@@H](CC(=O)NO)CC(C)C` [GM6001]: in [1], the “effect on EAE” value is listed as “suppressed the development or reversed the clinical expression of experimental allergic encephalomyelitis (EAE) in a dose dependent manner”.
What is called IC50 is the concentration needed to halve the response being measured. In the case of `O=C(O)[C@H](CCc1ccccc1)NS(=O)(=O)c1ccc2oc3ccccc3c2c1` [Example 1, (S)-2-(Dibenzofuran-2-sulfonylamino)-4-phenyl-butyric acid], the half-maximal inhibitory concentration (IC50) in data set [2] came to 47000 nM; in data set [3] it was 67000 nM; in [4], 270 nM. In addition, the concentration at 24 h in data set [5] (24 hours, read-out: plasma levels at 24 hours postdose) worked out at 29 µM. The Cmax in data set [5] (at 1 to 4 hours, read-out: peak plasma levels) was 71 µM. In addition, the Tmax in data set [5] (read-out: time of peak plasma levels) is 1 to 4 h.
With `O=C(O)[C@H](CCc1ccccc1)NS(=O)(=O)c1ccc2c(c1)Cc1ccccc1-2` [Example 9, (S)-2-(9H-Fluorene-2-sulfonylamino)-4-phenyl-butyric acid], the IC50 in data set [6] amounted to 2550 nM; in data set [2], 49500 nM; in [3] it was 100000 nM; in data set [4] it was 24 nM; in data set [7], 46.5 nM; in data set [8] it was 330 nM.
Consider “TIMP-1: TIMP-1; TIMPs are natural endogenous inhibitors of MMPs”, for which, in data set [9], the “formation of collagen fragments” value is recorded as “prevented the formation of collagen fragments”.
